Data on 1 molecule can be found in patent publication US11357806B2, “Method of isolating sphingolipids from cordyceps and their use” (Macau University of Science and Technology, priority 2015, dated 2022).

In assay [1] the test system is Con A-induced splenic lymphocytes. Put plainly: Con A-induced primary splenocyte proliferation model (MTT, immunosuppressive activity assay). It counts as cell-based, ICR mice. The settings on record: Mus musculus, Splenic lymphocyte, Con A 2.5 mg/L, 48 h culture, read-out: IC50 (concentration that reduced cell proliferation by 50%). The protocol: (§1) Male ICR mice (Weight, 10 to 22 g) were provided by the Comparative Medicine Center of Yangzhou University. The animal studies were approved by the Animal Ethics Committee of China Pharmaceutical University. The animals were cared for according to the regulations of the Animal Committee.
(§2) ICR mice were killed by cervical dislocation, and the spleens were removed aseptically. Mononuclear cell suspensions were prepared and re-suspended in RPMI 1640 medium (containing 10% FBS). The resulting splenic lymphocytes suspensions (4×10^6 cells/mL) were cultured in 96-well plate (100 μL suspensions each well). In the control group, 100 μL 10% FBS in RPMI1640 was added into each well (five replicates of wells). In the LPS or Con A model group, 100 μL LPS or Con A (2.5 mg/L of final concentration) was added into each well (five replicates of wells). For the positive drug treatment group, 50 μL of LPS or Con A (2.5 mg/L of final concentration) and 50 μL of FTY720 with a set of final concentrations (0.001, 0.003, 0.01, 0.03, 0.1, 0.3, 1, 3 and 10 μM) were added into each well. In the test group, 50 μL of LPS or Con A (2.5 mg/L of final concentration) and 50 μL of the four SPL fractions with a set of final concentrations were added into each well. […] Then the OD490 readings were taken with a microplate reader (Bio Tek, Tigan Street Winooski, Vt., USA). […]

Assay [2] has as its system LPS-induced splenic lymphocytes. Put plainly: LPS-induced primary splenocyte proliferation model (MTT, immunosuppressive activity assay). The assay is classed as cell-based, ICR mice. The settings on record: Mus musculus, Splenic lymphocyte, LPS 2.5 mg/L, 48 h culture, read-out: IC50 (concentration that reduced cell proliferation by 50%). The protocol:
as §1, §2

Read-outs that look alike come from different tables or passages of the source.

As for `CCCCCCCCc1ccc(CCC(N)(CO)CO)cc1` [FTY720], the IC50 was determined as 0.11 µg/mL in assay [1], 310 nM in assay [1] (value in brackets), 0.15 µg/mL in assay [2] and 430 nM in assay [2] (value in brackets).
